Source: US11384055B2 (BIOMARIN PHARMACEUTICAL INC., priority 2017, dated 2022)

The compounds below were run against T1, Human GO (Homo sapiens, UniProt Q9UJM8) (assay: GO enzymatic assay (coupled fluorescence/HRP assay, glycolate substrate)). Conditions: not given.
T1 construct: purchased Novus Biologicals NBP1-72412
T1 sequence (Q9UJM8 1-370): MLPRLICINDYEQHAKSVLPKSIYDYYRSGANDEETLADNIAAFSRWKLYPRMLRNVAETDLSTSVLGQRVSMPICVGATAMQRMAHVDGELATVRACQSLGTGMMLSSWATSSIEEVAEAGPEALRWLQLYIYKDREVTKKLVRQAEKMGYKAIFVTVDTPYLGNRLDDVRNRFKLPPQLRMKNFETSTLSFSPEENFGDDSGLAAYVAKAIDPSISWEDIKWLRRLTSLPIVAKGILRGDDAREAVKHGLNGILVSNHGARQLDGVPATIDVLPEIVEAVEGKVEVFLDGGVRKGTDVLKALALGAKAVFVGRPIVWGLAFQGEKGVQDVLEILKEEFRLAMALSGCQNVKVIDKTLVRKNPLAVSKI
Format: biochemical
Procedure: Assay 1: GO Enzymatic Assay
GO was incubated with its substrate, glycolate, in 50 mM potassium phosphate buffer, pH 7. […] The enzyme was optimized and the kinetics was determined.
Compound inhibition was determined by adding various concentrations of inhibitors in the GO enzyme assay. The IC50 value for each measured compound was generated from sigmoidal dose-response (variable slope) curves with GraphPad Prism software (GraphPad Software, Inc., San Diego, Calif.) using the percent inhibition of GO activity relative to DMSO control.

IC50 [nM]	SMILES
< 100	O=C(O)c1[nH]nnc1Sc1ccc(Cl)c(Cl)c1 [Compound 41, 4-((3,4-dichlorophenyl)thio)-1H-1,2,3-triazole-5-carboxylic acid]

Same assay, conditions: Table 1; read-out: Range (range of IC50 values calculated from the enzymatic assays)

SMILES	IC50 [nM]
COC(=O)c1[nH]nnc1Sc1ccc(-c2ccc(OC(F)(F)F)cc2)cc1 [Compound 33, methyl 4-((4′-(trifluoromethoxy)-[1,1′-biphenyl]-4-yl)thio)-1H-1,2,3-triazole-5-carboxylate]	> 10000
CCCCOc1ccc2sc(Sc3nn[nH]c3C(=O)O)nc2c1 [Compound 34, 4-((5-butoxybenzo[d]thiazol-2-yl)thio)-1H-1,2,3-triazole-5-carboxylic acid]	100 to 1000
Cn1c(Sc2nn[nH]c2C(=O)O)cnc1-c1ccc(Cl)c(Cl)c1 [Compound 35, 4-((2-(3,4-dichlorophenyl)-1-methyl-1H-imidazol-5-yl)thio)-1H-1,2,3-triazole-5-carboxylic acid 2,2,2-trifluoroacetate]	100 to 1000
CN(C)CCOC(=O)c1[nH]nnc1Sc1ccc(-c2ccc(OC(F)(F)F)cc2)cc1 [Compound 37, 2-(dimethylamino)ethyl 4-((4′-(trifluoromethoxy)-[1,1′-biphenyl]-4-yl)thio)-1H-1,2,3-triazole-5-carboxylate]	> 10000
COC(=O)c1[nH]nnc1Sc1csc(-c2ccc(OC(F)(F)F)c(Cl)c2)n1 [Compound 40, methyl 4-((2-(3-chloro-4-(trifluoromethoxy)phenyl)thiazol-4-yl)thio)-1H-1,2,3-triazole-5-carboxylate]	> 10000
COC(=O)c1[nH]nnc1Sc1nc(-c2ccc(OC(F)(F)F)c(Cl)c2)cs1 [Compound 44, methyl 4-((4-(3-chloro-4-(trifluoromethoxy)phenyl)thiazol-2-yl)thio)-1H-1,2,3-triazole-5-carboxylate]	> 10000
O=C(OC1COC1)c1[nH]nnc1Sc1ccc(-c2ccc(OC(F)(F)F)cc2)cc1 [Compound 45, oxetan-3-yl 4-((4′-(trifluoromethoxy)-[1,1′-biphenyl]-4-yl)thio)-1H-1,2,3-triazole-5-carboxylate]	1000 to 10000
O=C(O)c1[nH]nnc1Sc1ccc2cc(Cl)ccc2n1 [Compound 46, 4-((6-chloroquinolin-2-yl)thio)-1H-1,2,3-triazole-5-carboxylic acid]	100 to 1000
CC(C)(C)C(=O)OCn1nnc(Sc2ccc(-c3ccc(OC(F)(F)F)cc3)cc2)c1C(=O)O [Compound 51, 1-((pivaloyloxy)methyl)-4-((4′-(trifluoromethoxy)-[1,1′-biphenyl]-4-yl)thio)-1H-1,2,3-triazole-5-carboxylic acid]	100 to 1000
CC(C)C(=O)OCn1nnc(Sc2ccc(-c3ccc(OC(F)(F)F)cc3)cc2)c1C(=O)O [Compound 52, 1-((isobutyryloxy)methyl)-4-((4′-(trifluoromethoxy)-[1,1′-biphenyl]-4-yl)thio)-1H-1,2,3-triazole-5-carboxylic acid]	100 to 1000
CC(C)(C)C(=O)OCOC(=O)c1[nH]nnc1Sc1ccc(-c2ccc(OC(F)(F)F)cc2)cc1 [Compound 54, (pivaloyloxy)methyl 4-((4′-(trifluoromethoxy)-[1,1′-biphenyl]-4-yl)thio)-1H-1,2,3-triazole-5-carboxylate]	1000 to 10000
CC(C)C(=O)OCOC(=O)c1[nH]nnc1Sc1ccc(-c2ccc(OC(F)(F)F)cc2)cc1 [Compound 55, (isobutyryloxy)methyl 4-((4′-(trifluoromethoxy)-[1,1′-biphenyl]-4-yl)thio)-1H-1,2,3-triazole-5-carboxylate]	100 to 1000
CCOC(=O)c1[nH]nnc1Nc1ccc(-c2ccc(Cl)cc2)cc1 [Compound 58-1, ethyl 4-((4′-chloro-[1,1′-biphenyl]-4-yl)amino)-1H-1,2,3-triazole-5-carboxylate]	> 10000
O=C(O)c1[nH]nnc1Nc1ccc(-c2ccc(Cl)c(Cl)c2)cc1 [Compound 60, 4-((3′,4′-dichloro-[1,1′-biphenyl]-4-yl)amino)-1H-1,2,3-triazole-5-carboxylic acid]	< 100
O=C(O)c1[nH]nnc1Nc1csc(-c2ccc(Cl)c(Cl)c2)n1 [Compound 61, ammonium 4-((2-(3,4-dichlorophenyl)thiazol-4-yl)amino)-1H-1,2,3-triazole-5-carboxylate]	< 100
O=C(O)c1[nH]nnc1Nc1ccc(-c2ccc(OC(F)(F)F)cc2)cc1 [Compound 62, 4-((4′-(trifluoromethoxy)-[1,1′-biphenyl]-4-yl)amino)-1H-1,2,3-triazole-5-carboxylic acid 2,2,2-trifluoroacetate]	< 100
CN(c1csc(-c2ccc(Cl)c(Cl)c2)n1)c1nn[nH]c1C(=O)O [Compound 63, 4-((2-(3,4-dichlorophenyl)thiazol-4-yl)(methyl)amino)-1H-1,2,3-triazole-5-carboxylic acid]	100 to 1000
O=C(O)c1[nH]nnc1Nc1nc(-c2ccc(OC(F)(F)F)c(Cl)c2)cs1 [Compound 64, 4-((4-(3-chloro-4-(trifluoromethoxy)phenyl)thiazol-2-yl)amino)-1H-1,2,3-triazole-5-carboxylic acid]	< 100
COC(=O)c1[nH]nnc1Nc1ccc(-c2ccc(OC(F)(F)F)cc2)cc1 [Compound 65, methyl 4-((4′-(trifluoromethoxy)-[1,1′-biphenyl]-4-yl)amino)-1H-1,2,3-triazole-5-carboxylate]	> 10000
O=C(O)CN(c1ccc(-c2ccc(Cl)cc2)cc1)c1nn[nH]c1C(=O)O [Compound 66, 4-((carboxymethyl)(4′-chloro-[1,1′-biphenyl]-4-yl)amino)-1H-1,2,3-triazole-5-carboxylic acid 2,2,2-trifluoroacetate]	1000 to 10000
O=C(O)c1[nH]nnc1NCc1cccc(-c2ccc(Cl)c(Cl)c2)c1 [Compound 67, 4-(((3′,4′-dichloro-[1,1′-biphenyl]-3-yl)methyl)amino)-1H-1,2,3-triazole-5-carboxylic acid]	100 to 1000

Second part, the compound after the results:

IC50 [nM]	SMILES
< 100	O=C(O)c1[nH]nnc1Sc1ccc(-c2ccc(OC(F)(F)F)c(Cl)c2)cc1 [Compound 32, 4-((3′-chloro-4′-(trifluoromethoxy)-[1,1′-biphenyl]-4-yl)thio)-1H-1,2,3-triazole-5-carboxylic acid]
< 100	O=C(O)c1[nH]nnc1Sc1csc(-c2ccc(Cl)c(Cl)c2)c1 [Compound 36, 4-((5-(3,4-dichlorophenyl)thiophen-3-yl)thio)-1H-1,2,3-triazole-5-carboxylic acid]
< 100	O=C(O)c1[nH]nnc1Sc1csc(-c2ccc(OC(F)(F)F)c(Cl)c2)n1 [Compound 39, 4-((2-(3-chloro-4-(trifluoromethoxy)phenyl)thiazol-4-yl)thio)-1H-1,2,3-triazole-5-carboxylic acid]
< 100	O=C(O)c1[nH]nnc1Sc1cccc(-c2ccc(OC(F)(F)F)cc2)c1 [Compound 42, 4-((4′-(trifluoromethoxy)-[1,1′-biphenyl]-3-yl)thio)-1H-1,2,3-triazole-5-carboxylic acid]
< 100	O=C(O)c1[nH]nnc1Sc1nc(-c2ccc(OC(F)(F)F)c(Cl)c2)cs1 [Compound 43, 4-((4-(3-chloro-4-(trifluoromethoxy)phenyl)thiazol-2-yl)thio)-1H-1,2,3-triazole-5-carboxylic acid]
< 100	O=C(O)c1[nH]nnc1Sc1ccc(-c2ccc(Cl)cc2)c(Cl)c1 [Compound 47, 4-((2,4′-dichloro-[1,1′-biphenyl]-4-yl)thio)-1H-1,2,3-triazole-5-carboxylic acid]
< 100	O=C(O)c1[nH]nnc1Sc1ccc(-c2ccc(Cl)cc2)cc1Cl [Compound 48, 4-((3,4′-dichloro-[1,1′-biphenyl]-4-yl)thio)-1H-1,2,3-triazole-5-carboxylic acid]
< 100	O=C(O)c1[nH]nnc1Sc1ccc(F)c(F)c1 [Compound 49, 4-((3,4-difluorophenyl)thio)-1H-1,2,3-triazole-5-carboxylic acid]
< 100	O=C(O)c1[nH]nnc1Sc1ccc2c(c1)CCCC2 [Compound 50, 4-((5,6,7,8-tetrahydronaphthalen-2-yl)thio)-1H-1,2,3-triazole-5-carboxylic acid]
< 100	O=C(O)c1[nH]nnc1Sc1ccc2ncsc2c1 [Compound 53, 4-(benzo[d]thiazol-6-ylthio)-1H-1,2,3-triazole-5-carboxylic acid 2,2,2-trifluoroacetate]
< 100	O=C(O)c1[nH]nnc1Sc1ccc2cc(Cl)ccc2c1 [Compound 56, 4-((6-chloronaphthalen-2-yl)thio)-1H-1,2,3-triazole-5-carboxylic acid]
< 100	O=C(O)c1[nH]nnc1SC1Cc2cc(Cl)c(Cl)cc2C1 [Compound 57, 4-((5,6-dichloro-2,3-dihydro-1H-inden-2-yl)thio)-1H-1,2,3-triazole-5-carboxylic 2,2,2-trifluoroacetate]
< 100	O=C(O)c1[nH]nnc1Nc1ccc(-c2ccc(Cl)cc2)cc1 [Compound 58-2, 4-((4′-chloro-[1,1′-biphenyl]-4-yl)amino)-1H-1,2,3-triazole-5-carboxylic acid]
< 100	O=C(O)c1[nH]nnc1Nc1nc(-c2ccc(Cl)c(Cl)c2)cs1 [Compound 59, 4-((4-(3,4-dichlorophenyl)thiazol-2-yl)amino)-1H-1,2,3-triazole-5-carboxylic acid]
